Laboratory results as given in patent publication US20170242014A1, “METHODS FOR TREATING SOLID TUMORS AND THE USE OF BIOMARKERS AS A PREDICTOR OF CLINICAL SENSITIVITY TO IMMUNOMODULATORY THERAPIES” (CELGENE CORPORATON, priority 2014, published 2017).
“Also recorded” adds a separate entry of the source. Peptide text beside a SMILES is read from it. * marks the point of attachment. Cbz = O=C(OCc1ccccc1)*

Key:
ZFP91 [1] = assay: ZFP91 protein level in HCC cells Focus and JHH4 (western blot / proteomic preparation); type: cell-based; details: for effect on ZFP91 degradation induced by Compound A: 10 μM for 1 hour, then 5 μM Compound A for 6 hours, FIG. 5A; for level of ZFP91 protein: control plate and proteomic preparation, beta-actin control
Description: (§1) Both HCC cells, Focus and JHH4 in 3D setting, were cultured continuously for 15 days treated with either DMSO or Compound A, or were first cultured for about 7 days prior to treatment with either DMSO or Compound A for 24 hours or 72 hours. Cells were harvested and proteins were prepared from the cells for proteomics analysis. The growth of the cells on control plates was also analyzed. In particular, cells were plated in media containing either DMSO or Compound A. Cells were cultured for certain time, and then were harvested onto filter plates. After the plates have dried, scintillation fluid was added to the plates and read on a Top-count reader.
Focus cells were cultured for 18 days either continuously for 18 days in the medium containing DMSO, Compound A, or Compound B, or cultured for 7 days prior to treating with DMSO, Compound A, or Compound B for 11 days. Then cells were harvested and were treated in 200 μl cold cell lysis buffer (1% Triton X-100 from Cell Signaling supplemented with protease inhibitors and phophatase inhibitors from Roche) to generate cell lysate. Proteins from cell lysate were separated by 4-12% nupage gels (Invitrogen) and transferred to nitrocellulose membranes. Immunoblots were then probed with antibodies recognizing CRBN, ZFP91 (LSBio) and β-actin (Li-Cor). Signals were detected with a Li-Cor Odyssey Imager. As shown, the level of ZFP91 reduced in response to treatment with Compound A or Compound B.
(§2) HCC cells from both Focus and JHH4 cell lines in 2D setting treated with Compound A for 6 hours, 24 hours, and 72 hours, and JHH4 cells in 3D setting treated with Compound A for 15 days were also analyzed by western blot. Cells were harvested and were treated in 200 μl cold cell lysis buffer (1% Triton X-100 from Cell Signaling supplemented with protease inhibitors and phophatase inhibitors from Roche) to generate cell lysate. Proteins from cell lysate were separated by 4-12% Nupage gels (Invitrogen) and transferred to nitrocellulose membranes. Immunoblots were then probed with antibodies recognizing CRBN, ZFP91 (LSBio), P-TBK1, and β-actin (Li-Cor). Signals were detected with a Li-Cor Odyssey Imager. As shown, the level of ZFP91 reduced in response to treatment with Compound A for 6 hours, 24 hours, or 72 hours in both cell lines in 2D setting. […] The level of CRBN increased in response to treatment with Compound A for 6 hours, 24 hours, or 72 hours in both cell lines in 2D setting. […] ZFP91 degradation induced by various doses of Compound A for various time periods was also tested in both Focus and JHH4 cells, as shown in FIG. 4C.
HCC cells from both Focus and JHH4 cell lines in 2D setting were first treated with 10 μM MG132 or MLN4924 for 1 hour, and then were treated with 5 μM DMSO or 5 μM Compound A for 6 hours. Cells were harvested and were treated in cell lysis buffer to generate cell lysate. Proteins from cell lysate were separated by gel electrophoresis and transferred to nitrocellulose membranes. Immunoblots were then probed with antibodies recognizing CRBN, ZFP91 (LSBio), and β-actin (Li-Cor). The results were shown in FIG. 5A, and as shown, both 10 μM MG132 or MLN4924 inhibited ZFP91 degradation. MG132 activates c-Jun N-terminal kinase (JNK1), which initiates apoptosis. […] MLN4924 is a NAE1 inhibitor that blocks the activity of Cullin Ring Ligases (CRLs), such as CRL4CRBN.

ZFP91 [2] = assay: ZFP91 protein level in Hep3B cells (western blot); type: cell-based, human; details: for ZFP91 level (western blot): FIG. 6A upper panel; for effect on reduction of ZFP91 level in response to Compound A or Compound B: FIG. 6A lower panel
Description: The change of ZFP91 level in response to Compound A or Compound B treatments was also evaluated in human hepatoma Hep3B cell lines. Hep3B cells were treated with Compound A or Compound B, and cells were harvested and treated in lysis buffer to generate cell lysate. Proteins from cell lysate were separated by electrophoresis gel and transferred to nitrocellulose membranes. Immunoblots were then probed with antibodies recognizing CRBN, ZFP91, and β-actin. Signals were detected with a Li-Cor Odyssey Imager. The results were shown in the upper panel of FIG. 6A. […] Thus, ZFP91 may be degraded in response treatment compounds regardless of growth response of the cells to the treatment compounds.

Hep3B cells = assay: Growth response of Hep3B cells to treatment compounds; type: cell-based, human; details: FIG. 6B
ZFP91 [3] = assay: ZFP91 protein level in HCC cells Focus and JHH4 (western blot / proteomic preparation); type: cell-based; details: for level of ZFP91 in cells treated with cycloheximide (CHX): 100 ug/ml CHX, FIG. 5B; for effect of compound on ZFP91 degradation after knocking down of CRBN: FIG. 5C
ZFP91 [4] = assay: ZFP91 protein level in glioblastoma cell lines U87 and SNB19 (western blot); type: cell-based, human; details: FIG. 7A
Description: The change of ZFP91 level in response to treatment compounds was evaluated in other solid tumor cell lines, e.g., giloblastoma (GBM) cell lines. […] Proteins from cell lysate were separated by electrophoresis gel and transferred to nitrocellulose membranes. Immunoblots were then probed with antibodies recognizing ZFP91 and β-actin. Signals were detected with a Li-Cor Odyssey Imager.

CRBN = CRBN protein level in HCC cells Focus and JHH4 (western blot / proteomic preparation); type: cell-based; details: for level of CRBN (western blot): FIG. 4B; for level of CRBN protein: control plate and proteomic preparation
Description: as §2, with “Both HCC cells, Focus and JHH4 in 3D setting, were cultured continuously for 15 days treated with either DMSO or Compound A, or were first cultured for about 7 days prior to treatment with either DMSO or Compound A for 24 hours or 72 hours. Cells were harvested and proteins were prepared from the cells for proteomics analysis. The growth of the cells on control plates was also analyzed. In particular, cells were plated in media containing either DMSO or Compound A. Cells were cultured for certain time, and then were harvested onto filter plates. After the plates have dried, scintillation fluid was added to the plates and read on a Top-count reader. HCC” for “HCC”

Focus cells = assay: Colony growth on control plates, 3D culture; type: cell-based; details: FIG. 2B
Description: as §1

U87 tumor = assay: U87 xenograft tumor growth; type: in vivo; details: FIG. 7B left panel
JHH4 cells = assay: Colony growth on control plates, 3D culture; type: cell-based; details: JHH4, 3D, FIG. 3B
ZFP91 [5] = assay: Immunostaining of ZFP91 in U87 xenograft tissue; type: in vivo; details: FIG. 7B right panel
[6] = test system: HCC cell lines (excised xenograft tumors of HAK-1AJ and Focus); assay: Proteomic screening (TMT) of HCC cell lines after Compound A treatment; type: cell-based
Description: HCC cell lines (excised xenograft tumors of HAK-1AJ and Focus) were treated with either with DMSO, or Compound A for either once (single) or multiple times. Cells were harvested at 24 or 72 hours time points, and proteins were fractionated using a basic pH reverse gradient method. Fractionated samples were labeled using a Tandem Mass Tag (TMT) method. Relative abundance was calculated.

P-TBK1 = P-TBK1 level by western blot in HCC cells; type: cell-based; details: 3D setting; Compound A treatment
Description: as §2

NF-κB activation = details: read-out: IC50 of inhibition of NF-κB activation; cited from earlier work
[7] = Focus cells, 18 days continuous or 7 days culture then 11 days treatment, FIG. 4A
[8] = proteomic screening vs DMSO, harvested at 24 or 72 hours

With `O=C1CCC(N2Cc3c(OCc4ccc(CN5CCOCC5)cc4)cccc3C2=O)C(=O)N1` (centres unmarked) [Compound B, 3-[4-(4-Morpholin-4-ylmethyl-benzyloxy)-1-oxo-1,3-dihydro-isoindol-2-yl]-piperidine-2,6-dione] the “level of ZFP91 (western blot)” value (ZFP91 [1]; [7]) was “reduced”, the “ZFP91 level (western blot)” value (ZFP91 [2]) was “down-regulated” and the “sensitivity of Hep3B cells (growth response)” value (Hep3B cells) was “sensitive”. For the same molecule, the “effect of compound on ZFP91 protein level after knocking down of CRBN” value (ZFP91 [3]; CRBN knock-down, cell line not stated, FIG. 5D) was “reversed”.

With `NS(=O)(=O)OC[C@@H]1C[C@@H](n2ccc3c(N[C@H]4CCc5ccccc54)ncnc32)C[C@@H]1O` [MLN4924, reference compound] the “effect on reduction of ZFP91 level in response to treatment compounds” value (“effect on reduction … to treatment compounds” below) (ZFP91 [4]; SNB19 cells) was “blocked”, the “effect on reduction … to treatment compounds” value (ZFP91 [4]; U87 cells) was “blocked” and the “effect on ZFP91 degradation induced by Compound A” value (“effect … by Compound A” below) (ZFP91 [1]; Focus, 2D) was “inhibited”. For the same molecule, the “effect … by Compound A” value (ZFP91 [1]; Focus, 2D, listed as MLN) was “block”, the “effect … by Compound A” value (ZFP91 [1]; JHH4, 2D) was “inhibited” and the “effect on reduction of ZFP91 level in response to Compound A or Compound B” value (ZFP91 [2]) was “blocked”. The “effect … by Compound A” value (ZFP91 [3]; JHH4, 2D, 10 μM for 1 hour, then 5 μM Compound A for 6 hours, FIG. 5A, listed as MLN) was “block”.

With `Cc1nc2cccc(N)c2c(=O)n1C1CCC(=O)NC1=O` (centres unmarked) [Compound A, 3-(5-amino-2-methyl-4-oxo-4H-quinazolin-3-yl)-piperidine-2,6-dione] the “level of CRBN (western blot)” value (CRBN; Focus, 2D setting, 6 hours, 24 hours, or 72 hours) was “increased”, the “level of CRBN protein” value (CRBN; Focus, 3D, FIG. 2A) was “increased” and the “level of CRBN (western blot)” value (CRBN; JHH4, 2D setting, 6 hours, 24 hours, or 72 hours) was “increased”. The “level of CRBN (western blot)” value (CRBN; JHH4, 3D setting, 15 days) was “increased”, the “level of CRBN protein” value (CRBN; JHH4, 3D, FIG. 3A) was “increased” and the colony number (Focus cells) was “reduced”. The total colony area (Focus cells) was “reduced”, the U87 tumor growth (U87 tumor; 3 mg/kg qd) was “significantly inhibits” and the U87 tumor growth (U87 tumor; 30 mg/kg qd) was “significantly inhibits”. The “ZFP91 level (western blot)” value (ZFP91 [4]; SNB19 cells) was “down-regulated”, the “ZFP91 level (western blot)” value (ZFP91 [4]; U87 cells) was “down-regulated” and the “level of ZFP91 (western blot)” value (ZFP91 [1]; [7]) was “reduced”. For the same molecule, the “level of ZFP91 (western blot)” value (ZFP91 [1]; Focus, 2D setting, 6 hours, 24 hours, or 72 hours, FIG. 4B) was “reduced”, the “level of ZFP91 protein” value (ZFP91 [1]; Focus, 3D, FIG. 2A) was “reduced” and the “level of ZFP91 (western blot)” value (ZFP91 [1]; JHH4, 2D setting, 6 hours, 24 hours, or 72 hours, FIG. 4B) was “reduced”. The “level of ZFP91 (western blot)” value (ZFP91 [1]; JHH4, 3D setting, 15 days, FIG. 4B) was “reduced”, the “level of ZFP91 protein” value (ZFP91 [1]; JHH4, 3D, FIG. 3A) was “reduced” and the “ZFP91 level (western blot)” value (ZFP91 [2]) was “down-regulated”. The “sensitivity of Hep3B cells (growth response)” value (Hep3B cells) was “not”, the colony number (JHH4 cells) was “reduced” and the total colony area (JHH4 cells) was “reduced”. The “ZFP91 in U87 xenograft tissue (immunostaining)” value (ZFP91 [5]) was “degraded”, the “level of ZFP91 in cells treated with cycloheximide (CHX)” value (ZFP91 [3]; Focus) was “decreased” and the “effect of compound on ZFP91 degradation after knocking down of CRBN” value (ZFP91 [3]; Focus, CRBN knock-down) was “reversed”. For the same molecule, the “level of ZFP91 in cells treated with cycloheximide (CHX)” value (ZFP91 [3]; JHH4) was “decreased”, the “effect of compound on ZFP91 degradation after knocking down of CRBN” value (ZFP91 [3]; JHH4, CRBN knock-down) was “reversed” and the “proteins commonly differentially abundant in both Focus and HAK-1AJ cell lines” value ([6]; 24 hours after treatment, FIG. 1C) was “WIBG, KAT1, Nestin, PARP4, and MVP”. For the same molecule, the “proteins downregulated in response to Compound A treatment” value [6, 8] was “MVP, PARP4, ZFP91, and ZNF198”, the “proteins upregulated in response to Compound A treatment” value [6, 8] was “Nestin, KAT1/CCBL1, and WIBG” and the “P-TBK1 level (western blot)” value (P-TBK1) was “upregulated”.

With `CC(C)C[C@@H](C=O)NC(=O)[C@H](CC(C)C)NC(=O)[C@H](CC(C)C)NC(=O)OCc1ccccc1` [MG132, reference compound] (Cbz-Leu-Leu-Leu-aldehyde) the “effect on reduction … to treatment compounds” value (ZFP91 [4]; SNB19 cells) was “blocked”, the “effect on reduction … to treatment compounds” value (ZFP91 [4]; U87 cells) was “blocked” and the “effect … by Compound A” value (ZFP91 [1]; Focus, 2D) was “block; also recorded: inhibited”. The “effect … by Compound A” value (ZFP91 [1]; JHH4, 2D) was “block; also recorded: inhibited”, the “effect on reduction of ZFP91 level in response to Compound A or Compound B” value (ZFP91 [2]) was “blocked” and the IC50 (NF-κB activation) was 3 µM.
